According to patent EP2181589A1, “Neurotoxic sterol glycosides” (Shaw, Christopher Ariel, priority 2008, dated 2010):

Assays:
Active Caspase-3 = assay: Active caspase-3 labelling (apoptotic activity); type: in vivo, CD-1 mice
Description: (§1) The synthetic SG was mixed with finely ground Purina Chow mouse pellets (Mouse Diet™, Purina) to create the experimental pellets with a SG content of 1000 µg per pellet. Dry materials were blended with a sterile silicon spatula. For every 5 g of standard feed, 2.5 mL of doubly-distilled water (dd)H2O was added and the dough was kneaded and round up into pellets. A single sterol glucoside containing pellet was placed in the feeding tray each morning before the addition of regular mouse chow (ad libitum). All experimental pellets were entirely consumed by the mice each day. Control mice were fed standard mouse chow pellets of identical weight with no additives. SG feeding was conducted daily for 15 weeks and mice were behaviorally monitored until sacrifice at 35 weeks (time point 1) or 52 weeks (time point 2).
Tissue-mounted slides were processed for fluorescence microscopy as follows: Sections were rinsed in coplin jars for 45 minutes at room temperature (RT) in three changes of PBS. Sections were then incubated at RT for 30 minutes in a blocking permeabilization solution made of 5% normal goat serum (NGS), 5% normal rabbit serum (NRS) or 5% BlokHen II (Aves Labs, Inc., Tigard, OR), 0.05% Triton X-100 and PBS. Subsequently, the blocking solution was tipped off and the slides were rinsed in PBS for 2 minutes. […]

CD-1 mice = assay: Gait analysis (Digigait); type: in vivo; conditions: SG-fed vs control
Description: Five-month old male CD-1 mice (30.1-35.7 g, 7.5 cm - 8.8 cm) were purchased from Charles River (Wilmington, MA). Adult mice were chosen to mimic the mean age of onset of ALS-PDC (Kurland, 1988; Kurland et al., 1994). Thirty mice for the SG study were randomly divided into 2 groups (14 control and 16 experimental animals). All animals were housed singly in a virus-free barrier facility in a room maintained at 22°C under a 12 hour light/dark cycle. The mice were provided ad libitum access to food and water.
as §1
Gait analysis: In order to examine spatial and temporal indices of front and hind limb stepping patterns during forward locomotion, mice were required to run on a colorless (PVC and polycarbonate), straight, level, walled motorized belt (Digigait™, treadmill motor: DC, HP; torque 45 1b-in, Mouse Specifics, Inc., Boston, MA, USA) set at 30 rpm with a no-flicker light source (90-250 VAC; 25 kHZ, Mouse Specifics, Inc., Boston, MA, USA) and camera mounted ventrally (relative to the animal) to facilitate continuous ventral plane videography (up to 150 frames per second) of activity. Gait indices were analyzed with the complementary digital imaging software (Digigait™, Mouse Specifics, Inc., Boston, MA, USA) as per manufacturer's instructions. Briefly, the software converts "paw prints" into a digital signal and generates a temporal record of paw placement and breaks down the digital file into three main parameters: stride duration, swing duration, and stance duration. The stance duration is the period during which the paw of a limb is in contact with the belt surface. The software further subdivides the stance duration into two components: braking duration (the increase in paw contact area over a discrete time interval) and propulsion duration (the decrease in paw contact area over a discrete time interval). The swing duration is the period of time that a paw is not in contact with the belt surface. In addition to these factors, over a dozen additional characteristics, including stance factor, step-sequence pattern, propulsion, and cadence are generated to provide a spreadsheet format report of twenty-five gait indices.

## CCC(C=CC(C)C1CCC2C3CC=C4CC(OC5OC(CO)C(O)C(O)C5O)CCC4(C)C3CCC12C)C(C)C (centres unmarked) [SG]
Active Caspase-3; SG-fed group over time, 35 to 52 wk
  Apoptotic cells: Apoptotic cells (SG-fed group over time) (ns)
Active Caspase-3; SG-fed vs control, 52 weeks (figure legend)
  number of apoptotic cells: did not reach significance
Active Caspase-3; SG-fed vs control, time-point 2, 52 wk
  Anti-active caspase 3: (ns)
CD-1 mice; time-point 1, 35 wk
  Forelimb braking: Forelimb braking (ns)
  Forelimb propulsion: Forelimb propulsion (ns)
  Forelimb stance width: Forelimb stance width (ns)
  Forelimb stride length: Forelimb stride length (ns)
  Hind limb braking: Hind limb braking (ns)
  Hind limb propulsion: Hind limb propulsion (ns)
  Hind limb stance width: Hind limb stance width (ns)
  Hind limb stride frequency: Hind limb stride frequency (ns)
  Hind limb stride length: Hind limb stride length (ns)
CD-1 mice; time-point 2, 52 wk
  Forelimb braking: Forelimb braking* (*p<0.05)
  Forelimb propulsion: Forelimb propulsion* (*p<0.05)
  Hind limb braking: Hind limb braking* (*p<0.05)
  Hind limb propulsion: Hind limb propulsion* (*p<0.05)
  Hind limb stride frequency: Hind limb stride frequency* (*p<0.05)
